Results published in PubChem BioAssay (NCI).
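Five compound concentrations were applied to cells in 96-well plates for 48 hours; endpoints were derived by simple linear interpolation of the resulting dose-response curve. GI50 marks 50% less growth. TGI: total growth inhibition.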

Assays:
Experiment in all cases: inhibition of tumour cell growth, NCI panel, 48 h
HOP-92 NSCLC = tested on: HOP-92 NSCLC
KM12 colon = tested on: KM12 colon
NCI-H226 lung = tested on: NCI-H226 lung
OVCAR-4 ovarian = tested on: OVCAR-4 ovarian
SF-268 CNS = tested on: SF-268 CNS
SF-295 CNS = tested on: SF-295 CNS
SN12C renal = tested on: SN12C renal
CAKI-1 renal = tested on: CAKI-1 renal
LOX IMVI melanoma = tested on: LOX IMVI melanoma
MDA-MB-231 breast = tested on: MDA-MB-231 breast

Row | SMILES | TGI (HOP-92 NSCLC) [µM] | TGI (KM12 colon) [µM] | TGI (NCI-H226 lung) [µM] | TGI (OVCAR-4 ovarian) [µM] | TGI (SF-268 CNS) [µM] | TGI (SF-295 CNS) [µM] | TGI (SN12C renal) [µM] | TGI (CAKI-1 renal) [µM] | TGI (LOX IMVI melanoma) [µM] | TGI (MDA-MB-231 breast) [µM] | GI50 (SF-295 CNS) [µM] | GI50 (SN12C renal) [µM] | GI50 (CAKI-1 renal) [µM] | GI50 (HOP-92 NSCLC) [µM] | GI50 (KM12 colon) [µM] | GI50 (LOX IMVI melanoma) [µM] | GI50 (MDA-MB-231 breast) [µM] | GI50 (NCI-H226 lung) [µM] | GI50 (SF-268 CNS) [µM] | GI50 (OVCAR-4 ovarian) [µM]
1 | COC(=O)C12C3C4C1C1C2C3C41C(=O)N(C(C)C)C(C)C (centres undefined) | > 100 | > 100 | > 100 | > 100 | > 100 | > 100 | > 100 | – | – | – | – | – | – | – | – | – | – | – | – | –
2 | O=C(Nc1ccccc1C(=O)Nc1nccs1)c1ccccc1 | – | > 100 | > 100 | – | 60.9 | > 100 | > 100 | > 100 | > 100 | > 100 | – | – | – | – | – | – | – | – | – | –
3 | C=Cc1cnc([N+](=O)[O-])n1C | > 100 | > 100 | > 100 | – | > 100 | > 100 | > 100 | > 100 | > 100 | > 100 | – | – | – | – | – | – | – | – | – | –
4 | CCC1(CC)C(=O)[N-]C(=O)[N-]C1=O.[Au+].[Au+].c1ccc([PH+](c2ccccc2)c2ccccc2)cc1.c1ccc([PH+](c2ccccc2)c2ccccc2)cc1 | – | – | – | – | – | 2.91 | 4.75 | – | – | – | 1.52 | 2.08 | – | – | – | – | – | – | – | –
5 | O=C1C2=C(c3ccccc31)C(c1ccc(F)cc1)N1C(=O)CCSC1=N2 (centres undefined) | 97.7 | > 100 | > 100 | > 100 | > 100 | > 100 | > 100 | > 100 | – | – | – | – | – | – | – | – | – | – | – | –
6 | CN/N=C(\C(=O)Nc1ccc([N+](=O)[O-])cc1[N+](=O)[O-])C1NC(=O)NC1=O (centres undefined) | > 100 | > 100 | > 100 | > 100 | > 100 | > 100 | > 100 | > 100 | > 100 | – | – | – | – | – | – | – | – | – | – | –
7 | Cc1cc(Cl)ccc1NC(=O)CCCC(=O)C(C(=O)c1ccccc1)c1ccccc1 (centres undefined) | > 100 | > 100 | – | > 100 | > 100 | > 100 | > 100 | > 100 | > 100 | – | – | – | – | – | – | – | – | – | – | –
8 | N#CC1CCc2c(c(-c3cn[nH]c3C(F)(F)F)nc3c(F)cc4[nH]ncc4c23)C1 (centres undefined) | 26.5 | 41.9 | > 100 | – | 27.4 | 46.2 | 68.4 | > 100 | 15.3 | 38.1 | 14 | 4.22 | 18.6 | 4.42 | 3.34 | 3.45 | 4.96 | 16 | 5.02 | –
9 | CC(=O)NS(=O)(=O)c1ccc(-n2nc(-c3ccccc3)cc2C2=CC(=O)C=CC2=O)cc1 | > 100 | > 100 | > 100 | – | > 100 | > 100 | > 100 | > 100 | > 100 | > 100 | > 100 | > 100 | > 100 | > 100 | > 100 | > 100 | > 100 | > 100 | > 100 | –
10 | Cc1ccc(SCC(O)=C2C(=O)CCCC2=O)cc1 | > 100 | > 100 | > 100 | > 100 | > 100 | > 100 | > 100 | > 100 | > 100 | – | – | – | – | – | – | – | – | – | – | –
11 | C#CCOc1cccc(Nc2ncc3ncn(C4CCN(C(=O)CCl)C4)c3n2)c1 (centres undefined) | > 62.5 | > 62.5 | > 62.5 | – | > 62.5 | > 62.5 | > 62.5 | > 62.5 | > 62.5 | > 62.5 | > 62.5 | 29.1 | > 62.5 | > 62.5 | > 62.5 | 13.2 | > 62.5 | > 62.5 | > 62.5 | –
12 | N=C1C(c2nc(-c3ccc(Br)cc3)cs2)=C(O)CN1CC1CCCO1 (centres undefined) | > 100 | > 100 | > 100 | – | > 100 | > 100 | > 100 | > 100 | – | > 100 | > 100 | > 100 | > 100 | > 100 | > 100 | – | > 100 | > 100 | > 100 | –
13 | C[C@@H](c1ccccc1)N(CC#N)C1CCC[C@H]1O (some centres undefined) | > 100 | > 100 | > 100 | > 100 | > 100 | > 100 | > 100 | – | > 100 | – | – | – | – | – | – | – | – | – | – | –
14 | Cc1cc(Cl)ccc1NC(=O)NC(C)(C)COC(=O)Nc1cccc(Cl)c1 | 26.4 | 17.6 | > 100 | 90.6 | 78 | 8.31 | > 100 | 75.3 | – | 26 | 0.945 | 7.14 | 4.38 | 3.48 | 3.78 | – | 5.45 | 13.6 | 13.5 | 6.55
15 | C/C=C/C(=O)[O-].N.N.N.N.N.[Co+3].[O-][Cl+3]([O-])([O-])[O-] | > 100 | > 100 | – | > 100 | > 100 | > 100 | > 100 | – | > 100 | – | > 100 | > 100 | – | > 100 | > 100 | > 100 | – | – | > 100 | > 100
16 | Cc1ccc(C)c2c1CCc1cc3ccccc3nc1-2 | – | > 100 | – | > 100 | > 100 | > 100 | > 100 | > 100 | – | – | – | – | – | – | – | – | – | – | – | –
17 | O=c1cccccc1NCCNc1cccccc1=O | > 100 | > 100 | > 100 | > 100 | > 100 | > 100 | 27.9 | > 100 | > 100 | – | – | – | – | – | – | – | – | – | – | –
18 | O=C1C2=C(c3ccccc31)C(c1ccc(Cl)cc1)NC(=S)N2 (centres undefined) | 41.2 | 52.5 | 67.7 | 37.8 | 40.1 | 29.9 | 40.3 | 78.3 | – | – | – | – | – | – | – | – | – | – | – | –
19 | CC(C)=CCC/C(C)=C/[C@H]1OC(=O)CC12C[C@H](O)C=CC2=O (some centres undefined) | 3.06 | 2.67 | – | – | 2.65 | 4.69 | 2 | 2.3 | – | 3.29 | 1.98 | 0.529 | 0.827 | 1.21 | 0.777 | – | 1.55 | – | 0.922 | –
